Data from US20250134889A1, “TARGETING IRE1 KINASE AND FMRP FOR PROPHYLAXIS, MANAGEMENT AND TREATMENT OF ATHEROSCLEROSIS” (CEDARS-SINAI MEDICAL CENTER, priority 2022, published 2025).

Tests used:
[1] = target: T1, human IRE1-kinase/RNase domains (amino acids 468-977) (Homo sapiens, UniProt O75460); test: Kinase reaction with purified recombinant IRE1 and FMRP; type: biochemical; conditions: purified proteins, ATP-γ-S
T1 construct: recombinant human IRE1-kinase/RNase domains (amino acids 468-977); purchased Biotech (so in the source) E31-11G

[2] = tested on: atherosclerosis in Apoe-/- mice; test: Atherosclerosis in Apoe-/- mice fed WD; type: in vivo, mouse
Experimental: FIGS. 6A-6J depict that IRE1 kinase inhibition alleviates atherosclerosis. (Data are mean±SEM; Mann Whitney U test. * P≤0.05, ** P≤0.01, *** P≤0.001.) • 6A. Atherosclerosis experiment design in Apoe^−/− mice were fed with WD (12 weeks) and injected with vehicle (DMSO) or AMG-18 (30 mg/kg) once a day in the last 4 weeks of WD. • 6B. Lesion area calculated from en face aorta, stained with ORO (n=5; Scale bar=5 mm). • 6C. Total plaque area was calculated from H&E-stained aortic root sections (n=5; Scale bar=300 μm). • 6D. Foam cell area was calculated from ORO-stained aortic root sections (n=5; Scale bar=300 μm). • 6E. Necrotic area was calculated from H&E-stained aortic root sections (n=5; Scale bar=100 μm). • 6F. Atherosclerosis experiment design in Apoe^−/− mice were fed with WD (12 weeks) and injected with vehicle (DMSO) or AMG-18 (30 mg/kg) twice a day in the last 4 weeks of WD. • 6G. Lesion area calculated from en face aorta, stained with ORO (n=6; Scale bar=5 mm). • 6H. Total plaque area was calculated from H&E-stained aortic root sections (n=5; Scale bar=300 μm). • 6I. Foam cell area was calculated from ORO-stained aortic root sections (n=5; Scale bar=300 μm). • 6J. Necrotic area was calculated from H&E-stained aortic root sections (n=5; Scale bar=100 μm).
FIGS. 6K-6T depict: (Data are mean±SEM; Mann Whitney U test. * P≤0.05, ** P≤0.01, *** P≤0.001.) • 6K. The ratio of mouse weight at the beginning of the experiment over the weight at the end of the experiment in FIG. 6A (n=5). • 6L-6N. Plasma measurements for (6L) glucose (n=5) and (6M) cholesterol (n=5) from mice in FIG. 6A. (6N) Abundance of B cells, T cells and monocytes in the peripheral blood as % of total CD45+ cells from the vehicle (DMSO) or AMG-18 (30 mg/kg) once a day injected mice in FIG. 6A (n=5). • 6O. Protein lysates of liver from mice in FIG. 6A. Proteins were analyzed by western blotting using specific antibodies for pIRE1 and β-Actin (n=5). • 6P. The ratio of mouse weight at the beginning of the experiment over the weight at the end of the experiment in FIG. 6F (n=6). • 6Q-6R. Plasma measurements for (6Q) glucose (n=6) and (6R) cholesterol (n=6) from FIG. 6F. • 6S-6T. Protein lysates of (6S) thioglycolate-elicited PM and (6T) liver from mice in FIG. 6F. Proteins were analyzed by western blotting using specific antibodies for pIRE1 and β-Actin (n=6).
Mice studies and treatments: C57BL/6 (WT, Fmr1^+/+), Fmr1^−/− and Apolipoprotein E-deficient (Apoe^−/−) mice were purchased from Jackson Laboratory. IRE1 conditional knock out (Ire1α^flox/flox) mice were a kind gift from Dr. Takao Iwawaki (Kanazawa Medical University, Japan) and characterized before (Iwawaki et al, 2009). […] Fmr1 conditional knock out (Fmr1^flox/flox) mice were a kind gift from dr. David Nelson. Fmr1^flox/flox mice were inter-crossed with LysM^cre mice purchased from Jackson Lab (004781) to obtain myeloid Fmr1-deficient (myFmr1^−/−) mice. Starting at 8 weeks of age, Fmr1^−/−, Fmr1^−/−, myFmr1/or myFmr1^−/− mice were injected with 1×10^10 AAV_PCSK9 (AAV8-D377Y-mPCSK9, Vector BiolabsAAV-268246) via tail vein, then fed with normal chow or high cholesterol/high fat atherosclerotic mouse diet from Envigo (TD.88137) for 6 to 16 weeks. Apoe^−/− mice were fed with WD (12 weeks) and intraperitoneally injected with vehicle (DMSO) or AMG-18 (30 mg/kg) once or twice a day in the last 4 weeks of WD. C57BL/6 were injected with Tunicamycin (TM, 1 mg/kg) and with AMG-18 (30 mg/kg) or vehicle (DMSO) in 20% vol/vol Cremophor EL saline solution. 8 hours later peritoneal macrophages were isolated by thioglycolate elicitation for further analysis. Mice were kept under specific pathogen-free conditions with food and water ad libititum. Both female and male mice were used for experiments. […]

[3] = 30 mg/kg once daily, last 4 weeks of 12 weeks WD
[4] = 30 mg/kg twice daily, last 4 weeks of 12 weeks WD

T1 sequence (O75460 468-977): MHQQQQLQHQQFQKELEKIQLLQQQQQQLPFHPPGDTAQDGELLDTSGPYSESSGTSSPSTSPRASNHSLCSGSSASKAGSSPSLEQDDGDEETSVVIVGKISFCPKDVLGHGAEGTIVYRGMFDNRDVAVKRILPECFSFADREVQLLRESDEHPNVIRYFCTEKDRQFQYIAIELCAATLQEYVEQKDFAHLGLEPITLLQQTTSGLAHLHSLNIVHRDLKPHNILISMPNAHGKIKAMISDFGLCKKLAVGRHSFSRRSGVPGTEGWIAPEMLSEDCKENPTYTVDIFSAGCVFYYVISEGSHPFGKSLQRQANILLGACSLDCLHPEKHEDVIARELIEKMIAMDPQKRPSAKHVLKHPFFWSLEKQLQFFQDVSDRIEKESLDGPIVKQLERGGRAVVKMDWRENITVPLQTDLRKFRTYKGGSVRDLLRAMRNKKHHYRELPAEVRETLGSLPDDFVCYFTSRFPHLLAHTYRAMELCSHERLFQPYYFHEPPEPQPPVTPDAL

FMRP phosphorylation in kinase reaction [1]: AMG-18-sensitive
IRE1 phosphorylation in kinase reaction [1]: AMG-18-sensitive
number of circulating immune cells [2, 3]: no significant differences
SMILES: Cc1ccc2c(NS(=O)(=O)c3ccccc3Cl)cccc2c1Oc1ncccc1-c1ccnc(N[C@H]2CCCNC2)n1 [AMG-18]
aortic root lesion area [2, 3]: not different
atherosclerotic lesions in en face aorta preparations [2, 3]: decrease
body weight [2, 3]: no significant differences
foam cell area [2, 3]: significantly decreased
necrotic core area [2, 3]: significantly decreased
IRE1 autophosphorylation (target engagement) ([2]; 30 mg/kg once daily, liver lysates): reduced
aortic root lesion area [2, 4]: did not alter
atherosclerotic lesions in en face aorta preparations [2, 4]: significant decrease
body weight ratio [2, 4]: decrease
foam cell area [2, 4]: significantly decreased
necrotic core area [2, 4]: significantly decreased
IRE1 autophosphorylation (target engagement) ([2]; 30 mg/kg twice daily, PM and liver lysates): reduced
